PMC5537347, “A short D-enantiomeric antimicrobial peptide with potent immunomodulatory and antibiofilm activity against multidrug-resistant Pseudomonas aeruginosa and Acinetobacter baumannii” (Scientific Reports, 2017)
Converted amounts (≈) assume the structure as drawn. Read-outs that look alike come from different tables or passages of the source. Peptide text beside a SMILES is read from it.

Experiments:
[1] = system: C. elegans strain glp-4;sek 1; assay: Toxicity of peptides in uninfected C. elegans; assay type: in vivo, Caenorhabditis elegans; settings: worms grown four days with peptide; D-RR4 and colistin at 8 × MIC
Experimental: To test the efficacy of the synthetic peptides to protect against infections in vivo, we utilized a C. elegans model of bacterial infection. This model has been used extensively for early-stage evaluation of promising antimicrobials, [35], [36]. Initially, the lethal dose of D-RR4 against uninfected nematodes was determined.
(A) Evaluation of toxicity of peptides in Caenorhabditis elegans. C. elegans strain glp-4;sek 1 was grown for four days in the presence of peptides at different concentrations. Worms were monitored daily and the live worms were counted. Results are expressed as a Kaplan-Meier survival curve. (B) Evaluation of antimicrobial activity of peptides to reduce the bacterial CFU inside infected Caenorhabditis elegans. C. elegans strain glp-4; sek 1 were infected with P. aeruginosa PAO1, colistin-resistant P. aeruginosa 1109, or A. baumannii ATCC BAA-1605. […] After treatment, worms were lysed and bacteria were counted. One asterisk (*) indicates significant difference with the negative control. Two asterisks (**) indicates significant difference with the monotherapy treatment (P < 0.05). Results are expressed as means from three biological replicates ± standard deviation. (C) Efficacy of peptides in a Caenorhabditis elegans model of bacterial infection. […] Worms were monitored daily and the live worms were counted. Results are expressed as a Kaplan-Meier survival curve. C. elegans receiving no treatment served as a negative control.

[2] = system: colistin-resistant P. aeruginosa isolated from cystic fibrosis patients; settings: colistin-resistant isolated from cystic fibrosis patients
From the text: (§1) The broth microdilution technique was utilized to assess the MIC of designed peptides according to the guidelines of the Clinical and Laboratory Standards Institute (CLSI)[37].

[3] = system: P. aeruginosa and A. baumannii isolates
From the text: as §1

[4] = system: human red blood cells; assay: Hemolysis assay; assay type: cell-based; settings: for HC50: red cells of human
Experimental: Next, we assessed the hemolytic activity of the peptides on human red blood cells (RBCs).
Peptides were assayed for hemolytic activity against human red blood cells, as described previously.

[5] = system: murine macrophages (J774.1A); assay: Cytotoxicity, MTS assay; settings: 24 h
Experimental: (§2) A significant limitation for translating AMPs into clinical applications is their toxicity to host (mammalian) cells. Herein, we evaluated the cytotoxic effects of our peptide constructs against murine macrophages (J774.1A) and human keratinocytes (HaCaT cells), via the MTS assay.
(§3) The peptides were assayed for potential in vitro toxicity against human keratinocytes (HaCaT) and murine macrophage cells (J774A.1), as described before, with the following modifications. Cells were treated with peptides at different concentrations for 24 hours. The therapeutic index of the peptides was calculated as the ratio of mammalian EC50 (the concentration of peptide that inhibited growth of 50% of the mammalian cells) to the MIC50 of peptides against bacteria.

[6] = system: human keratinocytes (HaCaT cells); assay: Cytotoxicity, MTS assay; settings: 24 h
Experimental: as §2, §3

[7] = system: TNF-α; assay: Anti-inflammatory effect on LPS-stimulated macrophages, ELISA; assay type: cell-based, murine; settings: J774A.1 cells, LPS 150 ng/mL, six hours
Experimental: (§4) Figure 3 Ability of peptides to neutralize LPS and reduce inflammatory cytokines expression. (A) LPS binding activity of peptides. Peptides at different concentrations were incubated with one endotoxin unit (EU) of LPS at 37 °C for 30 minutes. […] The binding of peptides with LPS is expressed as percent change relative to the untreated samples. (B) Anti-inflammatory effect of peptides on LPS-stimulated macrophages. J774A.1 cells were stimulated with LPS (150 ng/mL final concentration) in the presence of different concentrations of peptides. Cells stimulated with LPS alone and untreated cells served as controls. Cells were incubated for six hours at 37 °C before the supernatant from each treatment group was collected. Detection of tumor necrosis factor-α (TNF-α) and interleukin-6 (IL-6) in supernatants was determined using ELISA. Cytokine levels are expressed as percent change relative to the LPS-stimulated control. Statistical analysis was calculated using one-way ANOVA, with post hoc Tukey’s multiple comparisons test. P < 0.05 was considered significant. One asterisk (*) indicates significant difference with the negative control.
(§5) To assess the anti-inflammatory effect of our peptides on LPS-stimulated macrophages, J774A.1 cells were seeded and incubated as described above (for toxicity assessment). Next, the cells were stimulated with LPS (150 ng/ml final concentration) in the presence of different concentrations of peptides (RR and D-RR4). Cells stimulated with LPS alone and untreated cells served as controls. Cells were incubated for six hours at 37 °C and the supernatant from each treatment was collected and stored at −20 °C until use. Tumor necrosis factor-α (TNF-α) and interleukin-6 (IL-6) present in the supernatant was quantified using ELISA, as described previously. Cytokine levels were presented as the percent change relative to the LPS-stimulated control, using triplicate samples for each treatment condition.

[8] = system: IL-6; assay: as above; assay type: cell-based, murine; settings: J774A.1 cells, LPS 150 ng/mL, six hours
Experimental: as §4, §5

[9] = system: LPS-induced activation of the LAL enzyme (Limulus amoebocyte lysate); assay: Binding of peptides to lipopolysaccharide (LAL assay); assay type: biochemical; settings: one EU of LPS, 37 °C, 30 minutes
Experimental: as §4
To determine the peptides’ ability to bind to LPS, a Limulus amoebocyte lysate (LAL) kit (Genscript, USA Inc.) was utilized, as described in previous reports. The peptides were dissolved in pyrogen-free water and serially diluted in the same solvent. The peptides were then incubated with one endotoxin unit (EU) of LPS at 37 °C for 30 minutes in order to permit the peptides to bind LPS. The reaction mixture (50 μL) was added to 50 μL of LAL reagent, and further incubated for 10 minutes. Next, 100 μL of LAL chromogenic substrate was added. The mixture was incubated at 37 °C for six minutes. The optical density (at 545 nm) was determined using a microplate reader. Colistin was used as a positive control. The binding of peptides with LPS was expressed as the percent change relative to the untreated control.

[10] = system: P. aeruginosa PAO1 biofilm; assay: Disruption of established biofilms, microtiter dish crystal violet assay; assay type: cell-based; settings: 32 × MIC, mature (24 hour) biofilm, 24 hours at 37 °C, crystal violet OD 595 nm
Experimental: Figure 1 Efficacy of peptides on established biofilms of P. aeruginosa PAO1 and A. baumannii ATCC BAA-1605. […] After incubation, wells were washed and biofilms were stained with 0.5% (w/v) crystal violet for 30 minutes. The dye was solubilized with ethanol (95%) and the optical density (595 nm) of the biofilm mass was measured. Experiments were repeated twice independently and the average values are reported.
To examine the peptides’ ability to disrupt bacterial biofilms, the microtiter dish biofilm formation assay was employed[41]–[43].

Row | SMILES | MIC50 [2] | MIC90 [2] | MIC90 [3] | HC50 [4] | EC50 [5] | EC50 [6] | other results
1 | CC[C@H](C)[C@H](NC(=O)CN)C(=O)NCC(=O)N[C@@H](C)C(=O)N[C@H](C(=O)N[C@@H](CC(C)C)C(=O)N[C@@H](CCCCN)C(=O)N[C@H](C(=O)N[C@@H](CC(C)C)C(=O)N[C@H](C(=O)N[C@H](C(=O)NCC(=O)N[C@@H](CC(C)C)C(=O)N1CCC[C@H]1C(=O)N[C@@H](C)C(=O)N[C@@H](CC(C)C)C(=O)N[C@H](C(=O)N[C@@H](CO)C(=O)N[C@@H](Cc1c[nH]c2ccccc12)C(=O)N[C@H](C(=O)N[C@@H](CCCCN)C(=O)N[C@@H](CCCNC(=N)N)C(=O)N[C@@H](CCCCN)C(=O)N[C@@H](CCCNC(=N)N)C(=O)N[C@@H](CCC(N)=O)C(=O)N[C@@H](CCC(N)=O)C(N)=O)[C@@H](C)CC)[C@@H](C)CC)[C@@H](C)O)[C@@H](C)O)C(C)C)C(C)C [Melittin] | – | – | – | – | – | – | toxicity to uninfected worms [1]: completely killed C. elegans after 3 days
2 | CC[C@H](C)[C@H](NC(=O)[C@H](CCCCN)NC(=O)[C@H](CCCCN)NC(=O)[C@H](Cc1c[nH]c2ccccc12)NC(=O)[C@@H](NC(=O)[C@H](CCCCN)NC(=O)[C@@H](NC(=O)[C@H](CCCNC(=N)N)NC(=O)[C@H](CCCNC(=N)N)NC(=O)[C@H](CCCCN)NC(=O)[C@@H](N)Cc1c[nH]c2ccccc12)[C@@H](C)CC)[C@@H](C)CC)C(=O)N[C@@H](CCCNC(=N)N)C(=O)O [RR1] (H-WKRRIKIWKKIR-OH; N-terminus and C-terminus assumed) | >128 µM | >128 µM | >256 µM | > 256 µM | > 256 µM | > 256 µM | MIC [2]: >128 µM; MIC against all tested bacterial strains [3]: > 256 µM; MIC50 ([3]; MIC that inhibited growth of 50% of all isolates (Table 2)): > 256 µM
3 | CC[C@H](C)[C@H](NC(=O)[C@H](Cc1c[nH]c2ccccc12)NC(=O)[C@H](CCCCN)NC(=O)[C@H](CCCCN)NC(=O)[C@@H](NC(=O)[C@H](CCCNC(=N)N)NC(=O)[C@H](CCCNC(=N)N)NC(=O)[C@@H](NC(=O)[C@@H](N)Cc1c[nH]c2ccccc12)[C@@H](C)CC)[C@@H](C)CC)C(=O)N[C@@H](CCCNC(=N)N)C(=O)N[C@@H](CCCNC(=N)N)C(=O)N[C@H](C(=O)N[C@@H](Cc1c[nH]cn1)C(=O)N[C@@H](CCCCN)C(=O)O)C(C)C [RR2] (H-WIRRIKKWIRRVHK-OH; N-terminus and C-terminus assumed) | 32 µM (≈ 63.2 µg/mL) | 32 µM (≈ 63.2 µg/mL) | 8 µM (≈ 15.8 µg/mL) | 256 µM | 128 µM | 64 µM | MIC50 [3]: 4 µM (≈ 7.9 µg/mL); Therapeutic index (TI) RBCs [4]: 64
4 | CC[C@H](C)[C@H](NC(=O)[C@H](CCCNC(=N)N)NC(=O)[C@H](CCCNC(=N)N)NC(=O)[C@H](CC(C)C)NC(=O)[C@@H](N)Cc1c[nH]c2ccccc12)C(=O)N[C@@H](CCCCN)C(=O)N[C@@H](C)C(=O)N[C@@H](Cc1c[nH]c2ccccc12)C(=O)N[C@@H](CC(C)C)C(=O)N[C@@H](CCCNC(=N)N)C(=O)N[C@@H](CCCNC(=N)N)C(=O)N[C@@H](CCCCN)C(=O)N[C@@H](CCCNC(=N)N)C(=O)N[C@@H](CCCCN)C(=O)O [RR3] (H-WLRRIKAWLRRKRK-OH; N-terminus and C-terminus assumed) | 16 µM (≈ 31.5 µg/mL) | 32 µM (≈ 62.9 µg/mL) | 16 µM (≈ 31.5 µg/mL) | > 256 µM | 128 µM | 128 µM | MIC50 [3]: 8 µM (≈ 15.7 µg/mL); Therapeutic index (TI) RBCs [4]: 64
5 | CC[C@H](C)[C@H](NC(=O)[C@H](CCCNC(=N)N)NC(=O)[C@H](CCCNC(=N)N)NC(=O)[C@H](CC(C)C)NC(=O)[C@@H](N)Cc1c[nH]c2ccccc12)C(=O)N[C@@H](CCCCN)C(=O)N[C@@H](C)C(=O)N[C@@H](Cc1c[nH]c2ccccc12)C(=O)N[C@@H](CC(C)C)C(=O)N[C@@H](CCCNC(=N)N)C(=O)N[C@@H](CCCNC(=N)N)C(=O)O [RR] (H-WLRRIKAWLRR-OH; N-terminus and C-terminus assumed) | – | – | – | – | – | – | decrease of TNF-α production ([7]; 10 µM): 24.4%; decrease of TNF-α production ([7]; 20 µM): 84.0%; decrease of IL-6 production ([8]; 10 µM): 75.4%; decrease of IL-6 production ([8]; 20 µM): 96.5%; inhibition of LPS-induced activation of the LAL enzyme ([9]; 5 µM peptide): 21.3%; inhibition of LPS-induced activation of the LAL enzyme ([9]; 10 µM peptide): 43.2%; inhibition of LPS-induced activation of the LAL enzyme ([9]; 15 µM peptide): 59.6%; inhibition of LPS-induced activation of the LAL enzyme ([9]; 20 µM peptide): 82.4%
6 | CNC(C)C1CCC(N)C(OC2C(N)CC(N)C(OC3OCC(C)(O)C(NC)C3O)C2O)O1 (stereo not drawn) [gentamicin] | – | – | – | – | – | – | biofilm mass disrupted [10]: 50%
7 | NC[C@H]1O[C@H](O[C@H]2[C@H](O)[C@@H](O[C@H]3O[C@H](CO)[C@@H](O)[C@H](N)[C@H]3O)[C@H](N)C[C@@H]2N)[C@H](N)C[C@@H]1O [tobramycin] | – | – | – | – | – | – | biofilm mass disrupted [10]: 50%
